We go through five compounds from US20230227484A1, “PYRIMIDINE COMPOUND AS AXL INHIBITOR” (NANJING CHIA TAI TIANQING PHARMACEUTICAL CO., LTD., priority 2020, published 2023).

Assay [1] concerns MV-4-11 (human myeloid monocytic leukemia cell line). Kind of assay: Proliferation inhibition activity of compounds to MV-4-11 cells (CellTiter-Glo). Type of assay: cell-based. As to conditions: MV4-11 cells, 72 h dosing. The method in brief: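 MV-4-11 cells, plated 24 h earlier, were exposed 72 h to compounds in 10-point 3-fold dilutions (0.5% DMSO final). Viability read by CellTiter-Glo luminescence; inhibition normalized to blank and untreated controls, IC50 from variable-slope log(inhibitor)-response fit.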
Background: Cellular ATP, detected with luciferase, serves as a proxy for viable cell number.

The target of a further assay is T1, AXL kinase (Homo sapiens, UniProt P30530).
T1 construct: purchased Carna 08-107
T1 sequence (P30530 473-894 limits assumed): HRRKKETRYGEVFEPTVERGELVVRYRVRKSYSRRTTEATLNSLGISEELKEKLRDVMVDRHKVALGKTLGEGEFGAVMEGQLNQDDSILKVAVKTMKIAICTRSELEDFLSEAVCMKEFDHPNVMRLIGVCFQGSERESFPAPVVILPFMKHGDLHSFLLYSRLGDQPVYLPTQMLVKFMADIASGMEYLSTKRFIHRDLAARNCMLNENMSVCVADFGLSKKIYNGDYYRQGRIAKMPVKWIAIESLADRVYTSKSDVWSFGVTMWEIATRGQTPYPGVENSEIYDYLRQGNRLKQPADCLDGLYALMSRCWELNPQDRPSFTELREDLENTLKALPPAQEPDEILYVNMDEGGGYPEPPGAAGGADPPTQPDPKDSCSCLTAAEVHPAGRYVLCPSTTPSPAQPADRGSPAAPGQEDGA
Kind of assay: Inhibitory activity of compound against AXL kinase (HTRF KinEASE). Type of assay: biochemical. To be noted: AXL enzyme (Carna, 08-107), ATP 15 μM; "<" means below detection limit of the test. In a few lines: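 AXL enzyme (final 0.016 ng/uL) was preincubated with compound (8 concentrations from 1 μM, ½ log steps) for 15 min at room temperature, then reacted with TK Substrate 3-biotin (final 1) and ATP (final 15 μM) for 45 min at 25° C. Phosphorylation was read by HTRF (TK antibody-cryptate, streptavidin-XL665, 1 h); IC50 from variable-slope dose-response fit.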
(In general: In TR-FRET formats the signal depends on donor and acceptor labels being close together.)

pIC50: −log10 of the molar value.

Take `CP(C)(=O)c1ccccc1Nc1nc(Nc2ccc3c(c2)CC[C@@H](N2CCCC2)CC3)ncc1Cl` [Example 10, (S)-(2-((5-chloro-2-((7-(pyrrolidin-1-yl)-6,7,8,9-tetrahydro-5H-benzo[7]annulen-2-yl)amino)pyrimidin-4-yl)amino)phenyl)dimethyl phosphine oxide]: the pIC50 (usually −log10 of the IC50, conventionally taken in molar units) in assay [1] was 8.26. The IC50 (as a rule, the concentration that inhibits the measured activity by half) on AXL kinase is 2.35 nM.
The corresponding values for `COCc1ccc(Nc2nc(Nc3ccc4c(c3)CC[C@@H](N3CCCC3)CC4)ncc2Cl)c(P(C)(C)=O)c1` [Example 115, (S)-(2-((5-chloro-2-((7-(pyrrolidin-1-yl)-6,7,8,9-tetrahydro-5H-benzo[7]annulen-2-yl)amino)pyrimidin-4-yl)amino)-5-(methoxymethyl)phenyl)dimethylphosphine oxide] are 8.16 and 4.89 nM.
The corresponding values for `Cc1ccc(Nc2nc(Nc3ccc4c(c3)CC[C@@H](N3CCCC3)CC4)ncc2Cl)c(P(C)(C)=O)c1` [Example 53, (S)-(2-((5-chloro-2-((7-(pyrrolidin-1-yl)-6,7,8,9-tetrahydro-5H-benzo[7]annulen-2-yl)amino)pyrimidin-4-yl)amino)-5-methylphenyl) dimethyl phosphine oxide] are 8.18 and 1.86 nM.
The corresponding values for `CNC(=O)c1cc(F)ccc1Nc1nc(Nc2ccc3c(c2)CC[C@@H](N2CCCC2)CC3)ncc1Cl` [Example 19, (S)-2-((5-chloro-2-((7-(pyrrolidin-1-yl)-6,7,8,9-tetrahydro-5H-benzo[7]annulen-2-yl)amino)pyrimidin-4-yl)amino)-5-fluoro-N-methylhenzamide] are 8.80 and 0.11 nM.
For `CP(C)(=O)c1c(Nc2nc(Nc3ccc4c(c3)CC[C@@H](N3CCCC3)CC4)ncc2Cl)ccc2nccnc12` [Example 47, (S)-(6-((5-chloro-2-((7-(pyrrolidin-1-yl)-6,7,8,9-tetrahydro-5H-benzo[7]annulen-2-yl)amino)pyrimidin-4-yl)amino)quinoxalin-5-yl)dimethyl phosphine oxide], the pIC50 in assay [1] was 8.28. The IC50 against AXL kinase was 1.72 nM.
